Measurements taken from ChEMBL document CHEMBL1201862, “PubChem BioAssay data set” (2004).
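Test compounds were applied to cells in 96-well plates for 48 hours at 5 doses. At the GI50, growth is halved.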 Active and inactive are the calls of the source. No stated cut-off is given here; in the data, active = GI50 up to about 1.1 µM and inactive = higher.

Experiments:
Assay in all cases: NCI tumour cell line growth inhibition, 48 h
[1] = system: SNB-75
[2] = system: RPMI-8226
[3] = system: A498
[4] = system: MOLT-4
[5] = system: OVCAR-3
[6] = system: LOX IMVI
[7] = system: OVCAR-8
[8] = system: NCI/ADR-RES
[9] = system: UO-31
[10] = system: OVCAR-5
[11] = system: KM12
[12] = system: SK-MEL-2
[13] = system: UACC-257
[14] = system: U-251
[15] = system: K562
[16] = system: SK-MEL-5
[17] = system: UACC-62
[18] = system: TK-10
[19] = system: NCI-H226
[20] = system: OVCAR-4
[21] = system: M14
[22] = system: SF-539
[23] = system: SK-OV-3
[24] = system: PC-3
[25] = system: A549
[26] = system: HCT-15
[27] = system: SW-620
[28] = system: HOP-92
[29] = system: HT-29
[30] = system: Hs-578T
[31] = system: HOP-62
[32] = system: SF-295
[33] = system: MDA-MB-435
[34] = system: NCI-H23
[35] = system: HCT-116
[36] = system: 786-0
[37] = system: SNB-19
[38] = system: DU-145
[39] = system: SN12C
[40] = system: MDA-MB-231
[41] = system: Malme-3M
[42] = system: SR
[43] = system: SF-268
[44] = system: IGROV-1
[45] = system: CCRF-CEM
[46] = system: SK-MEL-28
[47] = system: MCF7
[48] = system: ACHN
[49] = system: MDA-N
[50] = system: EKVX
[51] = system: COLO 205
[52] = system: CAKI-1
[53] = system: HL-60
[54] = system: T47D
[55] = system: HCC 2998
[56] = system: RXF 393
[57] = system: NCI-H460
[58] = system: NCI-H522

CCCC(=O)Oc1cc(OC(=O)CCC)c2c(C)cc(=O)oc2c1
GI50 [1]: 52.4 µM (inactive) | GI50 [2]: 32.2 µM (inactive) | GI50 [3]: 46.1 µM (inactive) | GI50 [4]: 29 µM (inactive) | GI50 [5]: 50 µM (inactive) | GI50 [6]: 40.1 µM (inactive) | GI50 [7]: 75.7 µM (inactive) | GI50 [8]: > 100 µM (inactive) | GI50 [9]: 39.6 µM (inactive) | GI50 [10]: > 100 µM (inactive) | GI50 [11]: 32.5 µM (inactive) | GI50 [12]: > 100 µM (inactive) | GI50 [13]: 83.6 µM (inactive) | GI50 [14]: 78.3 µM (inactive) | GI50 [15]: 44.9 µM (inactive) | GI50 [16]: 67.9 µM (inactive) | GI50 [17]: 66.1 µM (inactive) | GI50 [18]: > 100 µM (inactive) | GI50 [19]: 87.7 µM (inactive) | GI50 [20]: > 100 µM (inactive) | GI50 [21]: > 100 µM (inactive) | GI50 [22]: 21.8 µM (inactive) | GI50 [23]: > 100 µM (inactive) | GI50 [24]: 76.2 µM (inactive) | GI50 [25]: 92.9 µM (inactive) | GI50 [26]: > 100 µM | GI50 [27]: 49.9 µM (inactive) | GI50 [28]: 19.6 µM (inactive) | GI50 [29]: 36.5 µM (inactive) | GI50 [30]: 48.4 µM (inactive) | GI50 [31]: > 100 µM (inactive) | GI50 [32]: 78.7 µM (inactive) | GI50 [33]: 58.6 µM (inactive) | GI50 [34]: 71 µM (inactive) | GI50 [35]: 50.1 µM (inactive) | GI50 [36]: 82.6 µM (inactive) | GI50 [37]: > 100 µM (inactive) | GI50 [38]: > 100 µM (inactive) | GI50 [39]: > 100 µM (inactive) | GI50 [40]: > 100 µM (inactive) | GI50 [41]: 76.6 µM (inactive) | GI50 [42]: 18.5 µM (inactive) | GI50 [43]: > 100 µM (inactive) | GI50 [44]: 44.1 µM (inactive) | GI50 [45]: 31.9 µM (inactive) | GI50 [46]: > 100 µM (inactive) | GI50 [47]: 54.5 µM (inactive) | GI50 [48]: > 100 µM (inactive) | GI50 [49]: 62.2 µM (inactive) | GI50 [50]: > 100 µM (inactive) | GI50 [51]: 40 µM (inactive)

CC(C)[Si](OC1=C(C(=O)N(C)c2cccc(Cl)c2)CCCC1)(C(C)C)C(C)C
GI50 [1]: 10.4 µM (inactive) | GI50 [2]: 8.73 µM (inactive) | GI50 [3]: 16.9 µM (inactive) | GI50 [4]: 10.4 µM (inactive) | GI50 [5]: 14 µM (inactive) | GI50 [6]: 17.3 µM (inactive) | GI50 [7]: 16.8 µM (inactive) | GI50 [8]: 12.6 µM (inactive) | GI50 [9]: 14.5 µM (inactive) | GI50 [10]: 10.1 µM (inactive) | GI50 [11]: 13.5 µM (inactive) | GI50 [52]: 13.2 µM (inactive) | GI50 [12]: 15.5 µM (inactive) | GI50 [13]: 12.5 µM (inactive) | GI50 [14]: 13.8 µM (inactive) | GI50 [15]: 4.94 µM (inactive) | GI50 [16]: 14.1 µM (inactive) | GI50 [17]: 14.7 µM (inactive) | GI50 [18]: 15.4 µM (inactive) | GI50 [19]: 15.8 µM (inactive) | GI50 [20]: 12.7 µM (inactive) | GI50 [21]: 15.1 µM (inactive) | GI50 [53]: 5.61 µM (inactive) | GI50 [22]: 17.3 µM (inactive) | GI50 [23]: 16.6 µM (inactive) | GI50 [24]: 8.61 µM (inactive) | GI50 [25]: 4.41 µM (inactive) | GI50 [26]: 14 µM | GI50 [27]: 13.6 µM (inactive) | GI50 [28]: 12.4 µM (inactive) | GI50 [29]: 15.3 µM (inactive) | GI50 [30]: 12.5 µM (inactive) | GI50 [31]: 17.6 µM (inactive) | GI50 [32]: 11 µM (inactive) | GI50 [33]: 15.5 µM (inactive) | GI50 [54]: 2.91 µM (inactive) | GI50 [55]: 17 µM (inactive) | GI50 [34]: 11.7 µM (inactive) | GI50 [56]: 3.4 µM (inactive) | GI50 [36]: 18.3 µM (inactive) | GI50 [37]: 16.6 µM (inactive) | GI50 [38]: 11.7 µM (inactive) | GI50 [57]: 14.1 µM (inactive) | GI50 [40]: 16 µM (inactive) | GI50 [41]: 11.7 µM (inactive) | GI50 [42]: 9.16 µM (inactive) | GI50 [43]: 13.3 µM (inactive) | GI50 [44]: 17.2 µM (inactive) | GI50 [45]: 29.7 µM (inactive) | GI50 [46]: 13.6 µM (inactive) | GI50 [47]: 12.3 µM (inactive) | GI50 [48]: 16.2 µM (inactive) | GI50 [49]: 17.4 µM (inactive) | GI50 [50]: 15.6 µM (inactive) | GI50 [51]: 15.1 µM (inactive)

O=c1c(Nc2ccccc2)cn(CCOc2ccc(Cl)cc2)c(=O)n1CCOc1ccc(Cl)cc1
GI50 [2]: > 100 µM (inactive) | GI50 [3]: > 100 µM (inactive) | GI50 [4]: > 100 µM (inactive) | GI50 [6]: > 100 µM (inactive) | GI50 [9]: 51.9 µM (inactive) | GI50 [11]: > 100 µM (inactive) | GI50 [52]: > 100 µM (inactive) | GI50 [13]: > 100 µM (inactive) | GI50 [14]: > 100 µM (inactive) | GI50 [15]: > 100 µM (inactive) | GI50 [16]: 75.2 µM (inactive) | GI50 [17]: > 100 µM (inactive) | GI50 [20]: 26.7 µM (inactive) | GI50 [21]: 60.3 µM (inactive) | GI50 [24]: 41.1 µM (inactive) | GI50 [25]: > 100 µM (inactive) | GI50 [26]: > 100 µM | GI50 [27]: > 100 µM (inactive) | GI50 [30]: 60 µM (inactive) | GI50 [32]: > 100 µM (inactive) | GI50 [33]: 39.1 µM (inactive) | GI50 [55]: 22.2 µM (inactive) | GI50 [34]: > 100 µM (inactive) | GI50 [35]: > 100 µM (inactive) | GI50 [56]: 36.4 µM (inactive) | GI50 [36]: 28.1 µM (inactive) | GI50 [37]: > 100 µM (inactive) | GI50 [38]: 75.2 µM (inactive) | GI50 [39]: > 100 µM (inactive) | GI50 [57]: > 100 µM (inactive) | GI50 [42]: 96.2 µM (inactive) | GI50 [43]: 89.9 µM (inactive) | GI50 [44]: > 100 µM (inactive) | GI50 [45]: 64 µM (inactive) | GI50 [46]: > 100 µM (inactive) | GI50 [48]: > 100 µM (inactive) | GI50 [49]: > 100 µM (inactive) | GI50 [50]: 55.7 µM (inactive) | GI50 [51]: > 100 µM (inactive)

CC(NC(=O)c1ccc(NP(=O)(OCc2ccc([N+](=O)[O-])o2)N(C)CCCCCl)cc1)c1ccc(OCC2CCCCC2)c(C(N)=O)c1 (stereo not given)
GI50 [1]: 11 µM (inactive) | GI50 [2]: 4.86 µM (inactive) | GI50 [3]: 16.7 µM (inactive) | GI50 [4]: 9.71 µM (inactive) | GI50 [5]: 11.6 µM (inactive) | GI50 [6]: 13.7 µM (inactive) | GI50 [7]: 31.6 µM (inactive) | GI50 [8]: 61.8 µM (inactive) | GI50 [9]: 43.4 µM (inactive) | GI50 [10]: 25.4 µM (inactive) | GI50 [11]: 13.8 µM (inactive) | GI50 [52]: 26.4 µM (inactive) | GI50 [12]: 16.1 µM (inactive) | GI50 [13]: 13.4 µM (inactive) | GI50 [14]: 19.4 µM (inactive) | GI50 [15]: 17.3 µM (inactive) | GI50 [16]: 4.56 µM (inactive) | GI50 [17]: 12.6 µM (inactive) | GI50 [18]: 23.4 µM (inactive) | GI50 [19]: 16.4 µM (inactive) | GI50 [20]: 12.2 µM (inactive) | GI50 [53]: 16 µM (inactive) | GI50 [22]: 16.5 µM (inactive) | GI50 [23]: 21.6 µM (inactive) | GI50 [24]: 19.5 µM (inactive) | GI50 [25]: 10.6 µM (inactive) | GI50 [58]: 15.5 µM (inactive) | GI50 [26]: 46 µM | GI50 [27]: 28.4 µM (inactive) | GI50 [28]: 2.95 µM (inactive) | GI50 [29]: 18.3 µM (inactive) | GI50 [30]: 16.3 µM (inactive) | GI50 [31]: 16.9 µM (inactive) | GI50 [32]: 15.5 µM (inactive) | GI50 [33]: 12 µM (inactive) | GI50 [54]: 5.37 µM (inactive) | GI50 [55]: 11.4 µM (inactive) | GI50 [34]: 16.9 µM (inactive) | GI50 [35]: 16.2 µM (inactive) | GI50 [56]: 10.9 µM (inactive) | GI50 [36]: 17.5 µM (inactive) | GI50 [37]: 28.2 µM (inactive) | GI50 [38]: 29.3 µM (inactive) | GI50 [39]: 18.9 µM (inactive) | GI50 [57]: 17.1 µM (inactive) | GI50 [40]: 14.9 µM (inactive) | GI50 [42]: 10.5 µM (inactive) | GI50 [43]: 13.3 µM (inactive) | GI50 [44]: 15.9 µM (inactive) | GI50 [45]: 0.904 µM (active) | GI50 [46]: 17 µM (inactive) | GI50 [47]: 3.15 µM (inactive) | GI50 [48]: 29 µM (inactive) | GI50 [49]: 17.7 µM (inactive) | GI50 [51]: 10.9 µM (inactive)
